Patent US20060040909A1, “Selenophene compounds” (DEVELOPMENT CENTER FOR BIOTECHNOLOGY, priority 2004, published 2006)

System: Hep-3B liver cancer cells
Experiment: In vivo assay, Hep-3B cells transplanted subcutaneously into athymic mice
Settings: intraperitoneally, once every two days, 14th day, vs control group
Experimental: Compound 3 was tested for its efficacy against Hep-3B liver cancer cells implanted in mice of two treated groups at a […] dosage of 50 mg/kg and 75 mg/kg. In a control group, mice bearing Hep-3B liver cancer cells were not treated with any test compound. Male athymic mice (Ncr nu/nu) of 4-6 weeks of age and weighing 20-25 g were used. Mice were housed in cages in ventilated cabinets and provided sterilized pellet diet and sterile water ad libitum. The temperature was kept between 23-25° C. and a humidity of about 50±10%. Light of the housing area was on a 12-hour light/dark cycle. All experimentation was performed under the IACUC guidelines adopted by the Development Center for Biotechnology, Taiwan. Hep-3B cells were transplanted subcutaneously into athymic mice. In the treated groups, when the tumor reached a volume of about 50 mm^3, mice were treated with compound 3 at a dosage of 50 mg/kg or 75 mg/kg once every two days for three times. The treated groups and the control group each had 7 mice. Compound 3 was administered intraperitoneally. The sizes of tumors were measured using a caliper at least twice a week and the tumor volume (TV) was calculated. Body weights were also monitored along with tumor volume measurement. The percentage of tumor growth was determined by dividing the mean TV of the treated group by the mean TV of a control group.

For `Cn1c(-c2ccc(CO)[se]2)cc(CO)c1-c1ccc(CO)[se]1` [Compound 3], the “mean TV (tumor volume) reduced” value (three doses of 50 mg/kg) was 37% and the “mean TV (tumor volume) reduced” value (three doses of 75 mg/kg) was 63%.
